In one data set the target is ATR (Homo sapiens (Human), UniProt Q13535). The data set can be described thus: ATR kinase inhibition assay (HTRF). Type of data set: biochemical. Particulars: p53 substrate, ATP 150 nM. A general note: TR-FRET usually uses a lanthanide donor and a delayed reading to cut background.
A short description of data set [1]: Metabolic stability in human liver microsomes. The format is in vitro ADME. The procedure:
(§1) Drug-like Properties: Concepts, Structure Design and Methods: from ADME to Toxicity Optimization. […] Screen. […] After incubation for appropriate time (such as 5, 10, 20, 30 and 60 minutes), samples were collected, and an appropriate termination solution (glacial acetonitrile containing 200 ng/mL tolbutamide and 200 ng/mL labetalol (i.e. acetonitrile at 4° C.)) was added to stop the reaction. Sample treatment (n=1): each appropriate sample was added, vortexed and centrifuged at high speed. The supernatants were collected, and detected the substrate by HPLC-MS/MS. The peak area at the 0 min was set as 100%. The peak areas at other time points were converted to percentages of the remaining amount. The natural logarithms of the percentage of remaining amount at each time point was plotted against the incubation time, and the slope (−k) was calculated. Then, Clint (μL/min/mg) and half-life (T½, min) of the compounds were calculated following the equation: Inherent clearance rate (Clint)=(k*Volume of incubation solution)/Mass of liver microsomes.
For orientation: Microsomes from liver hold many membrane-bound enzymes, among them those of drug oxidation.

Data set [2] is described as follows: Metabolic stability in mouse liver microsomes. Type of data set: in vitro ADME, CD-1 mice. The protocol: as §1
Data set [3] is described as follows: Pharmacokinetic (PK) assay in mice. The format is in vivo. Particulars: CD-1 mice; for AUC(0-t): read-out: AUC0-24 h. The protocol: The PK of each compound was determined as follows: 6 CD-1 mice (obtained from Shanghai Lingchang Biotechnology Co., Ltd.) were divided into two groups, 3 mice in each group. […] Blood samples were collected from saphenous vein of lower leg in each group at 0, 0.083, 0.25, 0.5, 1, 2, 4, 6, 8 and 24 h after administration. Approximately 40 μL of the blood samples were collected in anticoagulant tubes containing EDTA-K2. Immediately after collection, the tubes were inverted at least 5 times to ensure adequate mixing, and then placed on ice. The blood samples collected at each time point were centrifuged at 4° C., 8000 rpm for 5 minutes to obtain plasma. Another 1.5 mL centrifuge tube was marked with the compound name, animal number, and time point, and the plasma was transferred to this tube. The plasma was stored at −80° C. until analysis.
Compound concentrations in plasma were determined by UPLC-MS/MS method, and the pharmacokinetic parameters were calculated by Phoenix WinNolin 6.4 pharmacokinetic software on the obtained data.

A short description of data set [4]: Equilibrium solubility in FaSSIF. Particulars: thermodynamic from solid; FaSSIF pH 6.5, shaken 24 hours. Type of data set: physicochemical. The protocol:
The compound powder was weighed into a volumetric flask, 450 μL of pH 6.5 FaSSIF solution was added to obtain a supersaturated suspension, the samples were vortexed for at least 2 minutes, and the volumetric flasks were shaken on a vibrating screen at 800 rpm for 24 hours, and then centrifuged at 4000 rpm for 20 minutes. The compressed filtrate was added to a HPLC system, and the concentrations were calculated by a standard curve method.

Data on one molecule can be found in patent publication US20240294550A1, “8-OXA-3-AZABICYCLO[3.2.1]OCTANE COMPOUNDS OR SALT THEREOF, AND PREPARATION METHOD AND USE THEREOF” (LITTDD MEDICINES LTD, priority 2021, published 2024).

For orientation: IC50 means the concentration needed to halve the response being measured. Lower therefore signals inhibition by little substance. Broadly, the half-life is the time needed for the level to fall by half in the phase considered. A higher half-life goes with slow decline. By bioavailability is commonly meant the share of a dose that reaches the circulation, judged against a reference dose that is usually intravenous. The low end stands for little systemic uptake, the high end for much systemic uptake. A word on the Cmax: it is the maximum level reached in the sampled fluid or tissue. The term solubility denotes the dissolved amount per volume that the medium holds. Read a high solubility as much dissolved substance.

Values after ≈ are worked out from the molar mass of the structure shown. Read-outs that look alike come from different tables or passages of the source.

ATR, sequence (Q13535 whole entry): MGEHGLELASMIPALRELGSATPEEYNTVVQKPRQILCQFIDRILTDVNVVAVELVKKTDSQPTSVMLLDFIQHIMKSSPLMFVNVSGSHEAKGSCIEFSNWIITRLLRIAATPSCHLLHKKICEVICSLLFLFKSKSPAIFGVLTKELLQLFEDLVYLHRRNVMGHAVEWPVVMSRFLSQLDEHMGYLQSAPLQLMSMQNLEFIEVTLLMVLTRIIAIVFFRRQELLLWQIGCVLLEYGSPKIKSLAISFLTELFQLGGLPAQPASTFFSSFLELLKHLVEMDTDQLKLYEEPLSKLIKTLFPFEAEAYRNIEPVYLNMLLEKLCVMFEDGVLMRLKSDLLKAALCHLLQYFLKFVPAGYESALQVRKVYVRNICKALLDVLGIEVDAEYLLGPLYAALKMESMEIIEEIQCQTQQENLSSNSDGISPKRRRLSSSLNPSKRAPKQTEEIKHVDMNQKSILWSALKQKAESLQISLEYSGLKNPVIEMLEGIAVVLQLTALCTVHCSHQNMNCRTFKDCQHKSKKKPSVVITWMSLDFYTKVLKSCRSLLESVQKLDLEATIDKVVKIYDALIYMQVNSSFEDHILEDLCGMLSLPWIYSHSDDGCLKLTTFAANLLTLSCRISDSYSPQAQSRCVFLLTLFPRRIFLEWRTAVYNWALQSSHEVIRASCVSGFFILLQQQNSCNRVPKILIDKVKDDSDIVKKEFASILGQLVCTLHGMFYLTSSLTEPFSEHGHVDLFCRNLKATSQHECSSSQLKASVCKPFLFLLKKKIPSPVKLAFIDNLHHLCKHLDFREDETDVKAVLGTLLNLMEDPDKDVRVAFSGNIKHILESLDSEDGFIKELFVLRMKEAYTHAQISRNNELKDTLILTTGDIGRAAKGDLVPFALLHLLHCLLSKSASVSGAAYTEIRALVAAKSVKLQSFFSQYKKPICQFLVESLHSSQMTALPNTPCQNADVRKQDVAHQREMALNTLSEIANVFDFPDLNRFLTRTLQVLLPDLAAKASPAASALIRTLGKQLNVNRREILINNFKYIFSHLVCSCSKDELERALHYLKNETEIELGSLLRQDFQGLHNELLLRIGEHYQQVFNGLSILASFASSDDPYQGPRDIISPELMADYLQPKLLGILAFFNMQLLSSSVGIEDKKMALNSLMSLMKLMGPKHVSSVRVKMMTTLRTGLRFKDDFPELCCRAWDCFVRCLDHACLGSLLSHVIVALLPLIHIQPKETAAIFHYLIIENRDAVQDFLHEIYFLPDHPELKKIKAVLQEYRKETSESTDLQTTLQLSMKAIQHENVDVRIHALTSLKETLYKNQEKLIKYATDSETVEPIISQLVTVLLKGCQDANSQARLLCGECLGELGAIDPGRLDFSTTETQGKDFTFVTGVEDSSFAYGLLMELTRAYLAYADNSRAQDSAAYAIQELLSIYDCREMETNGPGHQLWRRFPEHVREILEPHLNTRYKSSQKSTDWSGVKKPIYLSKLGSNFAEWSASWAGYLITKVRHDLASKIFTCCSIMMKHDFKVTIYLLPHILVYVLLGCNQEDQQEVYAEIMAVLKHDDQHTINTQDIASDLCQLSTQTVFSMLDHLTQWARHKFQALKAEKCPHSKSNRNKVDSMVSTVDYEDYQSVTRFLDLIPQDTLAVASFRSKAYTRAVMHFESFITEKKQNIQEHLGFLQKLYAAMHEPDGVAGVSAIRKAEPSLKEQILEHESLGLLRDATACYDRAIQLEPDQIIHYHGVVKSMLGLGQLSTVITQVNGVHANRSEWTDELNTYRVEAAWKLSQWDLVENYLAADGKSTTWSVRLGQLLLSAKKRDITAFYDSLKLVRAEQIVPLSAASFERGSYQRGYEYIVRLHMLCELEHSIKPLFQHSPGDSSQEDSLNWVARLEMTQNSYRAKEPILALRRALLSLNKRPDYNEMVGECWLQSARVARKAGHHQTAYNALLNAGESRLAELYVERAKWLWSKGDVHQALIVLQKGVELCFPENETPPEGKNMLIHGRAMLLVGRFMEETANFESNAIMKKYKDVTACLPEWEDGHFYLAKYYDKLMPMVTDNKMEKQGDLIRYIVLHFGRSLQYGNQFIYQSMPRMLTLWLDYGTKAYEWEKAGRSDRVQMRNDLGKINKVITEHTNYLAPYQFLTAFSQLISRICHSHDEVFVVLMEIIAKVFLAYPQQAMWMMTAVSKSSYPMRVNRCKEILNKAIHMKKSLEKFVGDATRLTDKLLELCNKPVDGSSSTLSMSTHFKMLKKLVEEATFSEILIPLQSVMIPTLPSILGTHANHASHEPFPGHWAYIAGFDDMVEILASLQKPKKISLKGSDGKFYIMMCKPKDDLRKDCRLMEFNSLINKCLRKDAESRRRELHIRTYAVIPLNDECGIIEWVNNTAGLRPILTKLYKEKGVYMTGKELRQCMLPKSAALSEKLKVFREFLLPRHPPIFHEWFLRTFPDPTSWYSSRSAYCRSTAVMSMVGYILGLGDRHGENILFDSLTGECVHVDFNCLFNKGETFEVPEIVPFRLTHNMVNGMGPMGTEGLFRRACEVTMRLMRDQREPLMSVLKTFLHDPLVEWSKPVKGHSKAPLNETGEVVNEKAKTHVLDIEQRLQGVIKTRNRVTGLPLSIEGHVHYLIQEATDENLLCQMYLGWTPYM
ATR, sequence (Q8WXE1 whole entry partner): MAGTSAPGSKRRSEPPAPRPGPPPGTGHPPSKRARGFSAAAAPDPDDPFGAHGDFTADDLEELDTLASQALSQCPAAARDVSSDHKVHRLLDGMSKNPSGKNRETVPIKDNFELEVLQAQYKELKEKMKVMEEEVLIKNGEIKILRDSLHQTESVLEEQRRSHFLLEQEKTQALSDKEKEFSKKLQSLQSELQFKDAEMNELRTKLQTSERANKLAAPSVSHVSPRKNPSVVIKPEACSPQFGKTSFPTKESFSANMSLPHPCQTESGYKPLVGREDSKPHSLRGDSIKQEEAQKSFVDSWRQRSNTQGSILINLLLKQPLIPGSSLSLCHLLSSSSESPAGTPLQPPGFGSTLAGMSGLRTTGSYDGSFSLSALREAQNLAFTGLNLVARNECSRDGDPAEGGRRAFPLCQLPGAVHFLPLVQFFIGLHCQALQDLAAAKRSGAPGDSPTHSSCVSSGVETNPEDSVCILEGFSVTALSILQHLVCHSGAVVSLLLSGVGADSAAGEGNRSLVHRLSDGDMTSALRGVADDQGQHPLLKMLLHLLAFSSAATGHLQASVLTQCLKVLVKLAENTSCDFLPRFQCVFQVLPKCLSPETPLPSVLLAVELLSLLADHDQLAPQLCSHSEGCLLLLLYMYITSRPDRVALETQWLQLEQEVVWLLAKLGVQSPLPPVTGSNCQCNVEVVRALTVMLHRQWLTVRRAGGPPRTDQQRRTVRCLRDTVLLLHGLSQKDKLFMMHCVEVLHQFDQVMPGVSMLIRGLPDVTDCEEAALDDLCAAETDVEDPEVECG

Take `C[C@@H]1COCCN1c1cc(N2CC3CCC(C2)O3)nc2c(-c3cc[nH]n3)cnn12` [Example 1, 3-(7-((R)-3-methylmorpholino)-3-(1H-pyrazol-3-yl)pyrazolo[1,5-a]pyrimidin-5-yl)-8-oxa-3-azabicyclo[3.2.1]octane]: on ATR, the IC50 came out at 17.4 nM. Further, the half-life at 1 μM in data set [1] (1 μM compound) is 1.97 h; in data set [2] (CD-1, 1 μM compound), 0.972 h. Also, the “Remain % (T = 60 min)” value in data set [1] (T = 60 min) came to 65.0%; in data set [2] (T = 60 min), 44.4%. The microsomal CLint at 1 μM was determined as 11.7 µL/min/mg in data set [1] (read-out: CLint(mic)) and 23.8 µL/min/mg in data set [2] (CD-1, read-out: CLint(mic)). The molecule also came in with a CL_obs in data set [3] (IV dose 1 mg/kg) of 18.3 mL/min/kg. The half-life is 1.51 h in data set [3] (mouse, plasma, IV dose 1 mg/kg) and 2.57 h in data set [3] (mouse, plasma, Po dose 5 mg/kg). Moreover, the Vd in data set [3] (mouse, plasma, IV dose 1 mg/kg, read-out: Vss) came out at 1.68 L/kg. In data set [3] (mouse, plasma, Po dose 5 mg/kg vs IV dose 1 mg/kg), the bioavailability came to 75.6%. The molecule further displayed a C0 in data set [3] (mouse, IV dose 1 mg/kg, plasma) of 823 ng/mL. The AUC(0-t) worked out at 925 ng·h/mL in data set [3] (mouse, IV dose 1 mg/kg, plasma) and 3440 ng·h/mL in data set [3] (mouse, Po dose 5 mg/kg, plasma). This molecule came in with a Cmax in data set [3] (mouse, Po dose 5 mg/kg, plasma) of 1080 ng/mL. For the same molecule, the solubility at 24 h in data set [4] amounted to 1140 µg/mL (≈ 2880 µM).
